The results in this text go back to patent US20250090572A1 (priority 2020, published 2025).

One test concerns the target SARS-CoV-2 spike protein (Severe acute respiratory syndrome coronavirus 2, UniProt P0DTC2). The format is binding. The note with it: spike protein 50 nM, polysaccharide 1 μM.
Test [1] deals with Pseudovirus particles containing surface Wuhan-Hu-1 SGP. The format is cell-based, SARS-CoV-2.

In the case of heparin, on SARS-CoV-2 spike protein (competitive binding inhibition between polysaccharide-spike protein complex and heparin-SPR chip), the Binding inhibition stood at 82 ± 7.5%. Moreover, at SARS-CoV-2 spike protein, the “competition with immobilized heparin for spike protein binding” value is reported as “competed with heparin for spike protein binding”. In addition, the 50% inhibitory concentration (IC50) – broadly, the midpoint of a concentration-inhibition curve – in test [1] stood at 4.6 µg/mL.
pentosan polysulfate [PPS] came in with an IC50 in test [1] of 1.6 µg/mL.
